Legend:
Assay in all cases: In vitro antibacterial evaluation: minimum inhibitory concentration (MIC), broth dilution method
Type in all cases: cell-based
[1] = tested on: Enterococcus sp.; settings: 18 hours at 35° C.
Method in brief: (§1)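 Following NCCLS approved standard M7-A2, compounds are serially diluted from 64 to 0.06 μg/mL in Muller-Hinton II […] and inoculated at 5×10^5 CFU/mL; the MIC is the minimum concentration at which growth is inhibited.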

[2] = tested on: Escherichia coli; settings: 18 hours at 35° C.
Method in brief: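 Using Muller-Hinton II […] and an inoculum of 5×10^5 CFU/mL, antibiotic dilutions from 64 down to 0.06 μg/mL were tested following NCCLS M7-A2. The MIC is the lowest concentration inhibiting growth, including in methicillin-, penicillin- or vancomycin-resistant clinical isolates.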

[3] = tested on: Staphylococcus sp.
Method in brief: as §1

[4] = tested on: Streptococcus sp.; settings: 18 hours at 35° C.
Method in brief: as §1

[5] = broth dilution, inoculum 5×10^5 CFU/mL

CC(C)CC(=O)OC1C(O)C(OC2C(CO)OC(Oc3ccc(CC4NC(=O)C(C(C)c5ccccc5)NC(=O)CNC(=O)C(CO)NC(=O)C(C(O)C5CNC(=N)N5C5OC(CO)C(O)C(O)C5O)NC(=O)C(C(O)C5CNC(=N)N5)NC4=O)cc3)C(O)C2O)OC2COC3(OC21)C1CC2CC(C1)CC3C2 (stereo not drawn) [Example 218, Cyclo[glycyl-β-methylphenylalanyl-O-[4-O-[4,6-O-(2-adamantylidene)-3-O-(3-methyl-butanoyl)-hexopyranosyl]hexopyranosyl]tyrosyl-3-(2-iminoimidazolidin-4-yl)-seryl-3-(3-hexopyranosyl-2-iminoimidazolidin-4-yl)serylseryl]]
>64 µg/mL: MIC Escherichia coli (GC 4559) ([2]; Escherichia coli (GC 4559))
64 µg/mL: MIC Escherichia coli (ATCC 25922) ([2]; Escherichia coli (ATCC 25922))
8 µg/mL: MIC Escherichia coli (GC 4560) ([2]; Escherichia coli (GC 4560)) | MIC Coagulase Negative Staphylococcus (GC 4551) ([3]; strain GC 4551)
4 µg/mL: MIC Enterococcus avium (GC 4558) ([1]; Enterococcus avium (GC 4558)) | MIC Enterococcus faecalis (ATCC 29212) ([1]; Enterococcus faecalis (ATCC 29212)) | MIC Enterococcus faecalis (GC 2242) ([1]; Enterococcus faecalis (GC 2242)) | MIC Enterococcus faecalis (GC 2691) ([1]; Enterococcus faecalis (GC 2691)) | MIC Enterococcus faecalis (GC 3059) ([1]; Enterococcus faecalis (GC 3059)) | MIC Enterococcus faecalis (GC 4552) ([1]; Enterococcus faecalis (GC 4552)) | MIC Enterococcus faecalis (GC 4553) ([1]; Enterococcus faecalis (GC 4553)) | MIC Enterococcus faecalis (GC 4554) ([1]; Enterococcus faecalis (GC 4554)) | MIC Enterococcus faecalis (GC 6189) ([1]; Enterococcus faecalis (GC 6189)) | MIC Enterococcus faecium (GC 2243) ([1]; Enterococcus faecium (GC 2243)) | MIC Enterococcus faecium (GC 4556) ([1]; Enterococcus faecium (GC 4556)) | MIC Enterococcus faecium (GC 4557) ([1]; Enterococcus faecium (GC 4557)) | MIC Enterococcus avium (GC 4558) [1, 5] | MIC Enterococcus faecalis (ATCC 29212) [1, 5] | MIC Enterococcus faecalis (GC 2242) [1, 5] | MIC Enterococcus faecalis (GC 2691) [1, 5] | MIC Enterococcus faecalis (GC 3059) [1, 5] | MIC Enterococcus faecalis (GC 4552) [1, 5] | MIC Enterococcus faecalis (GC 4553) [1, 5] | MIC Enterococcus faecalis (GC 4554) [1, 5] | MIC Enterococcus faecalis (GC 6189) [1, 5] | MIC Enterococcus faecium (GC 2243) [1, 5] | MIC Enterococcus faecium (GC 4556) [1, 5] | MIC Enterococcus faecium (GC 4557) [1, 5] | MIC Staphylococcus aureus (ATCC 29213) ([3]; strain ATCC 29213) | MIC Staphylococcus aureus (GC 1131) ([3]; strain GC 1131) | MIC Staphylococcus aureus (GC 3051) ([3]; strain GC 3051) | MIC Staphylococcus aureus (GC 3053) ([3]; strain GC 3053) | MIC Staphylococcus aureus (GC 4541) ([3]; strain GC 4541) | MIC Staphylococcus aureus (GC 4542) ([3]; strain GC 4542) | MIC Staphylococcus aureus-SMITH (GC 4543) ([3]; strain GC 4543) | MIC Staphylococcus aureus (GC 4544) ([3]; strain GC 4544) | MIC Staphylococcus aureus (GC 4545) ([3]; strain GC 4545) | MIC Staphylococcus haemolyticus (GC 4546) ([3]; strain GC 4546) | MIC Coagulase Negative Staphylococcus (GC 4547) ([3]; strain GC 4547) | MIC Coagulase Negative Staphylococcus (GC 4548) ([3]; strain GC 4548) | MIC Coagulase Negative Staphylococcus (GC 4549) ([3]; strain GC 4549) | MIC Coagulase Negative Staphylococcus (GC 6257) ([3]; strain GC 6257)
0.25 µg/mL: MIC Streptococcus agalactiae (GC 4564) ([4]; Streptococcus agalactiae (GC 4564)) | MIC Streptococcus agalactiae (GC 4564) [4, 5]
0.12 µg/mL: MIC Streptococcus pneumoniae (ATCC 6301) ([4]; Streptococcus pneumoniae (ATCC 6301)) | MIC Streptococcus pneumoniae (GC 4565) ([4]; Streptococcus pneumoniae (GC 4565)) | MIC Streptococcus pneumoniae (ATCC 6301) [4, 5] | MIC Streptococcus pneumoniae (GC 4565) [4, 5]
<0.06 µg/mL: MIC Streptococcus pneumoniae (GC 1894) ([4]; Streptococcus pneumoniae (GC 1894)) | MIC Streptococcus pneumoniae (GC 1894) [4, 5]
0.5 µg/mL: MIC Streptococcus pyogenes (GC 4563) ([4]; Streptococcus pyogenes (GC 4563)) | MIC Streptococcus pyogenes (GC 4563) [4, 5]

From US8247211B2, “Glycopeptide antibiotics” (American Cyanamid Company, priority 2001, dated 2012)
